Patent publication US20260262643A1, “HERBICIDAL BENZOXAZINES” (FMC CORPORATION, priority 2022, published 2026)

Legend:
sedge, umbrella = experiment: Test B flooded paddy test; type: in vivo, Cyperus difformis; conditions: 250 g ai/ha, Flood, 13 days, 0 to 100 scale (0 no effect, 100 complete control)
In short: (§1)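 Plants at the 2-leaf stage were flooded to 3 cm above the soil, and test compounds were applied directly into the paddy water, with that depth held throughout. After 13 days in a greenhouse, injury was rated visually against untreated controls on a 0–100 scale (100 = complete control).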

ducksalad = experiment: Test B flooded paddy test; type: in vivo, Heteranthera limosa; conditions: 250 g ai/ha, Flood, 13 days, 0 to 100 scale (0 no effect, 100 complete control)
In short: as §1

ryegrass, Italian [1] = experiment: Test A preemergence; type: in vivo, Lolium multiflorum
In short: (§2)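 Seeds in loam–sand blend received a directed preemergence soil spray of compound in non-phytotoxic solvent with surfactant; postemergence plants (2–10 cm, one- to two-leaf stage) were sprayed with the same formulation. After 10 days in greenhouse, injury was rated visually versus untreated controls, 0 (no effect) to 100 (complete control).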

pigweed, palmer [2] = experiment: Test A preemergence; type: in vivo, Amaranthus palmeri
In short: as §2

blackgrass [3] = experiment: Test A preemergence; type: in vivo, Alopecurus myosuroides
In short: as §2

soybean [4] = experiment: Test A postemergence; type: in vivo, Glycine max
In short: as §2

blackgrass [5] = experiment: Test A postemergence; type: in vivo, Alopecurus myosuroides
In short: as §2

galium = experiment: Test A postemergence; type: in vivo, Galium aparine
In short: as §2

wheat [6] = experiment: Test A postemergence; type: in vivo, Triticum aestivum
In short: as §2

kochia [7] = experiment: Test A postemergence; type: in vivo, Bassia scoparia
In short: as §2

rice = experiment: Test B flooded paddy test; type: in vivo, Oryza sativa; conditions: 250 g ai/ha, Flood, 13 days, 0 to 100 scale (0 no effect, 100 complete control)
In short: as §1

kochia [8] = experiment: Test A preemergence; type: in vivo, Bassia scoparia
In short: as §2

goosegrass [9] = experiment: Test A preemergence; type: in vivo, Eleusine indica
In short: as §2

barnyardgrass = experiment: Test B flooded paddy test; type: in vivo, Echinochloa crus-galli; conditions: 250 g ai/ha, Flood, 13 days, 0 to 100 scale (0 no effect, 100 complete control)
In short: as §1

oat, wild [10] = experiment: Test A preemergence; type: in vivo, Avena fatua
In short: as §2

foxtail, giant [11] = experiment: Test A preemergence; type: in vivo, Setaria faberi
In short: as §2

goosegrass [12] = experiment: Test A postemergence; type: in vivo, Eleusine indica
In short: as §2

ragweed [13] = experiment: Test A preemergence; type: in vivo, Ambrosia artemisiifolia
In short: as §2

foxtail, giant [14] = experiment: Test A postemergence; type: in vivo, Setaria faberi
In short: as §2

corn [15] = experiment: Test A preemergence; type: in vivo, Zea mays
In short: as §2

ryegrass, Italian [16] = experiment: Test A postemergence; type: in vivo, Lolium multiflorum
In short: as §2

corn [17] = experiment: Test A postemergence; type: in vivo, Zea mays
In short: as §2

ragweed [18] = experiment: Test A postemergence; type: in vivo, Ambrosia artemisiifolia
In short: as §2

soybean [19] = experiment: Test A preemergence; type: in vivo, Glycine max
In short: as §2

oat, wild [20] = experiment: Test A postemergence; type: in vivo, Avena fatua
In short: as §2

pigweed, palmer [21] = experiment: Test A postemergence; type: in vivo, Amaranthus palmeri
In short: as §2

wheat [22] = experiment: Test A preemergence; type: in vivo, Triticum aestivum
In short: as §2

[23] = 125 g ai/ha, visual injury after 10 days, 0 to 100 scale, 0 is no effect, 100 is complete control
[24] = 500 g ai/ha, 0 to 100 scale (0 no effect, 100 complete control), 10 days
[25] = 125 g ai/ha, postemergence, 10 days, visual injury, 0 to 100 scale (0 no effect, 100 complete control)
[26] = 500 g ai/ha, Postemergence, 0 to 100 scale

CC1CN(C(=O)c2cccc(-n3cncn3)c2)c2cccc(C3CC3)c2O1 (stereo not shown) [Compound 42]
Plant response rating, Sedge, Umbrella (sedge, umbrella): 0
Plant response rating, Ducksalad (ducksalad): 0
Plant response rating, Ryegrass, Italian (ryegrass, Italian [1]; [23]): 50
Plant response rating, Ryegrass, Italian (ryegrass, Italian [1]; [24]): 100
Plant response rating, Pigweed, Palmer (pigweed, palmer [2]; [23]): 10
Plant response rating, Pigweed, Palmer (pigweed, palmer [2]; [24]): 80
Plant response rating, Blackgrass (blackgrass [3]; [23]): 30
Plant response rating, Blackgrass (blackgrass [3]; [24]): 60
Plant response rating, Soybean (soybean [4]; [25]): 70
Plant response rating, Soybean (soybean [4]; [26]): 90
Plant response rating, Blackgrass (blackgrass [5]; [25]): 0
Plant response rating, Blackgrass (blackgrass [5]; [26]): 40
Plant response rating, Galium (galium; [25]): 50
Plant response rating, Galium (galium; [26]): 70
Plant response rating, Wheat (wheat [6]; [25]): 0
Plant response rating, Wheat (wheat [6]; [26]): 20
Plant response rating, Kochia (kochia [7]; [25]): 0
Plant response rating, Kochia (kochia [7]; [26]): 80
Plant response rating, Rice (rice): 0
Plant response rating, Kochia (kochia [8]; [23]): 0
Plant response rating, Kochia (kochia [8]; [24]): 20
Plant response rating, Goosegrass (goosegrass [9]; [23]): 30
Plant response rating, Goosegrass (goosegrass [9]; [24]): 90
Plant response rating, Barnyardgrass (barnyardgrass): 0
Plant response rating, Oat, Wild (oat, wild [10]; [23]): 0
Plant response rating, Oat, Wild (oat, wild [10]; [24]): 50
Plant response rating, Foxtail, Giant (foxtail, giant [11]; [23]): 10
Plant response rating, Foxtail, Giant (foxtail, giant [11]; [24]): 90
Plant response rating, Goosegrass (goosegrass [12]; [25]): 20
Plant response rating, Goosegrass (goosegrass [12]; [26]): 30
Plant response rating, Ragweed (ragweed [13]; [23]): 0
Plant response rating, Ragweed (ragweed [13]; [24]): 0
Plant response rating, Foxtail, Giant (foxtail, giant [14]; [25]): 20
Plant response rating, Foxtail, Giant (foxtail, giant [14]; [26]): 70
Plant response rating, Corn (corn [15]; [23]): 0
Plant response rating, Corn (corn [15]; [24]): 0
Plant response rating, Ryegrass, Italian (ryegrass, Italian [16]; [25]): 0
Plant response rating, Ryegrass, Italian (ryegrass, Italian [16]; [26]): 50
Plant response rating, Corn (corn [17]; [25]): 10
Plant response rating, Corn (corn [17]; [26]): 40
Plant response rating, Ragweed (ragweed [18]; [25]): 0
Plant response rating, Ragweed (ragweed [18]; [26]): 0
Plant response rating, Soybean (soybean [19]; [23]): 0
Plant response rating, Soybean (soybean [19]; [24]): 0
Plant response rating, Oat, Wild (oat, wild [20]; [25]): 0
Plant response rating, Oat, Wild (oat, wild [20]; [26]): 10
Plant response rating, Pigweed, Palmer (pigweed, palmer [21]; [25]): 30
Plant response rating, Pigweed, Palmer (pigweed, palmer [21]; [26]): 10
Plant response rating, Wheat (wheat [22]; [23]): 0
Plant response rating, Wheat (wheat [22]; [24]): 20

CC1CN(C(=O)c2cc(F)cc(-n3cncn3)c2)c2cccc(Cl)c2O1 (stereo not shown) [Compound 37]
Plant response rating, Sedge, Umbrella (sedge, umbrella): 0
Plant response rating, Ducksalad (ducksalad): 0
Plant response rating, Ryegrass, Italian (ryegrass, Italian [1]; [23]): 80
Plant response rating, Ryegrass, Italian (ryegrass, Italian [1]; [24]): 90
Plant response rating, Pigweed, Palmer (pigweed, palmer [2]; [23]): 50
Plant response rating, Pigweed, Palmer (pigweed, palmer [2]; [24]): 90
Plant response rating, Blackgrass (blackgrass [3]; [23]): 60
Plant response rating, Blackgrass (blackgrass [3]; [24]): 80
Plant response rating, Soybean (soybean [4]; [25]): 100
Plant response rating, Soybean (soybean [4]; [26]): 100
Plant response rating, Blackgrass (blackgrass [5]; [25]): 30
Plant response rating, Blackgrass (blackgrass [5]; [26]): 80
Plant response rating, Galium (galium; [25]): 40
Plant response rating, Galium (galium; [26]): 100
Plant response rating, Wheat (wheat [6]; [25]): 40
Plant response rating, Wheat (wheat [6]; [26]): 80
Plant response rating, Kochia (kochia [7]; [25]): 50
Plant response rating, Kochia (kochia [7]; [26]): 90
Plant response rating, Rice (rice): 0
Plant response rating, Kochia (kochia [8]; [23]): 0
Plant response rating, Kochia (kochia [8]; [24]): 20
Plant response rating, Goosegrass (goosegrass [9]; [23]): 90
Plant response rating, Goosegrass (goosegrass [9]; [24]): 100
Plant response rating, Barnyardgrass (barnyardgrass): 0
Plant response rating, Oat, Wild (oat, wild [10]; [23]): 0
Plant response rating, Oat, Wild (oat, wild [10]; [24]): 60
Plant response rating, Foxtail, Giant (foxtail, giant [11]; [23]): 90
Plant response rating, Foxtail, Giant (foxtail, giant [11]; [24]): 100
Plant response rating, Goosegrass (goosegrass [12]; [25]): 40
Plant response rating, Goosegrass (goosegrass [12]; [26]): 90
Plant response rating, Ragweed (ragweed [13]; [23]): 0
Plant response rating, Ragweed (ragweed [13]; [24]): 0
Plant response rating, Foxtail, Giant (foxtail, giant [14]; [25]): 50
Plant response rating, Foxtail, Giant (foxtail, giant [14]; [26]): 90
Plant response rating, Corn (corn [15]; [23]): 0
Plant response rating, Corn (corn [15]; [24]): 20
Plant response rating, Ryegrass, Italian (ryegrass, Italian [16]; [25]): 30
Plant response rating, Ryegrass, Italian (ryegrass, Italian [16]; [26]): 90
Plant response rating, Corn (corn [17]; [25]): 10
Plant response rating, Corn (corn [17]; [26]): 80
Plant response rating, Ragweed (ragweed [18]; [25]): 0
Plant response rating, Ragweed (ragweed [18]; [26]): 0
Plant response rating, Soybean (soybean [19]; [23]): 0
Plant response rating, Soybean (soybean [19]; [24]): 70
Plant response rating, Oat, Wild (oat, wild [20]; [25]): 0
Plant response rating, Oat, Wild (oat, wild [20]; [26]): 30
Plant response rating, Pigweed, Palmer (pigweed, palmer [21]; [25]): 30
Plant response rating, Pigweed, Palmer (pigweed, palmer [21]; [26]): 60
Plant response rating, Wheat (wheat [22]; [23]): 0
Plant response rating, Wheat (wheat [22]; [24]): 20
